Assays:
[1] = system: Nalm-6 cells expressing firefly luciferase; assay: Nalm-6 disseminated tumor xenograft mouse model, inhibitor in drinking water with suboptimal anti-CD19 CAR T dose; format: in vivo, NSG mice
Protocol: To permit assessment of the effect of a combination therapy with the inhibitor, a suboptimal dose of anti-CD19 CAR T cells was i.v. injected into the mice at 5×10^5/mouse at day 5. As a control, mice were administered the vehicle control without administration of the CAR-T cells or inhibitor.
Following treatment as described above, the tumor growth and percent survival of treated mice was determined.

RLK/TXK = target: T1, RLK/TXK (Homo sapiens, UniProt P42681); details: literature value given as embodiment; read-out: IC50 value, inhibitory activity against RLK/TXK; cited from earlier work
T1 sequence (P42681 1-527): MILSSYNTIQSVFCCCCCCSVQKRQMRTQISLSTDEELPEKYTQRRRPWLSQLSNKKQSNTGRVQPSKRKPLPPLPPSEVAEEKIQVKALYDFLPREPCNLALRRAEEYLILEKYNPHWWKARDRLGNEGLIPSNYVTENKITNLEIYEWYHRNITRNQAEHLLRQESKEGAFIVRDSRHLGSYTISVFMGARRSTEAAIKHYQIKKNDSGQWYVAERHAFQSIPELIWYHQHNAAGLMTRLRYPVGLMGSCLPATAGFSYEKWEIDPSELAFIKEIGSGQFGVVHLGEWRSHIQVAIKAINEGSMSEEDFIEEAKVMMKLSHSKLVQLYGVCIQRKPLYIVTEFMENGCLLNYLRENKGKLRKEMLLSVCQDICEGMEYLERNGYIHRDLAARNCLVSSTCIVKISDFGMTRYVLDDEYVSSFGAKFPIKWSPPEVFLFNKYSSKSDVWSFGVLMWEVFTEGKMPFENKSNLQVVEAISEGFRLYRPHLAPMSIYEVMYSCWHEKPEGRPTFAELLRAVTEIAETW

anti-CD19 CAR T cells [2] = assay: Cytokine production by anti-CD19 CAR T cells co-cultured with irradiated K562-CD19 (MSD); format: cell-based, human
Protocol: CAR-T cells generated as described above were plated at 100,000 cells/well on 96 well Poly-D-Lysine coated plates. Irradiated target cells (K562-CD19) were added at an effector to target ratio of 2.5:1. […] Culture supernatants were harvested at day 2, 3 or 4, and IFNγ, IL-2 and TNFa were measured from the culture supernatants using cytokine kits from Meso Scale Discovery (MSD).

anti-CD19 CAR-T cells = assay: Serial restimulation assay, expansion of anti-CD19 CAR-T cells; format: cell-based, human
Protocol: The ability of cells to expand ex vivo following repeated stimulations in some aspects can indicate capacity of CAR-T cells to persist (e.g., following initial activation) and/or is indicative of function and/or fitness in vivo (Zhao et al. (2015) Cancer Cell, 28:415-28). Anti-CD19 CAR-T cells generated as described above were plated in triplicate at 100,000 cells/well on 96 well Poly-D-Lysine coated plates, and irradiated target cells (K562-CD19) were added at an effector to target ratio of 2.5:1. […] A total of 7 rounds of stimulation during a 25 day culture period were carried out.
For each round of stimulation, the fold change in cell number and the number of doublings was determined. […] Expansion kinetics were similar in all treatment groups after three rounds of stimulation (day 11), as observed by fold change and number of population doublings. […] The cells derived from the two donors in which these differences were observed, generally, as compared to those derived from the other donor, performed less well in the serial restimulation assay in the absence of either inhibitor.

[3] = observed Cmax quoted for dosage range; cited from earlier work
anti-CD19 CAR T cells [4] = assay: TH1 phenotype of anti-CD19 CAR T cells in serial restimulation assay (flow cytometry); format: cell-based, human; details: 18-day serial stimulation, three donors; 500 nM ibrutinib (P<0.01); compound of Formula (II) treatment
Protocol: A serial restimulation assay was performed as described above and cells were harvested at various times and analyzed by flow cytometry to assess percentage of TH1-phenotype (assessed as CD4+CXCR3+CRTH2-) T cells or TH2-phenotype (assessed as CD4+CXCR3-CRTH2+).

Itk = target: T2, Itk (Homo sapiens, UniProt Q08881); details: reported, Byrd et al. 2016; cited from earlier work
T2 sequence (Q08881 1-620): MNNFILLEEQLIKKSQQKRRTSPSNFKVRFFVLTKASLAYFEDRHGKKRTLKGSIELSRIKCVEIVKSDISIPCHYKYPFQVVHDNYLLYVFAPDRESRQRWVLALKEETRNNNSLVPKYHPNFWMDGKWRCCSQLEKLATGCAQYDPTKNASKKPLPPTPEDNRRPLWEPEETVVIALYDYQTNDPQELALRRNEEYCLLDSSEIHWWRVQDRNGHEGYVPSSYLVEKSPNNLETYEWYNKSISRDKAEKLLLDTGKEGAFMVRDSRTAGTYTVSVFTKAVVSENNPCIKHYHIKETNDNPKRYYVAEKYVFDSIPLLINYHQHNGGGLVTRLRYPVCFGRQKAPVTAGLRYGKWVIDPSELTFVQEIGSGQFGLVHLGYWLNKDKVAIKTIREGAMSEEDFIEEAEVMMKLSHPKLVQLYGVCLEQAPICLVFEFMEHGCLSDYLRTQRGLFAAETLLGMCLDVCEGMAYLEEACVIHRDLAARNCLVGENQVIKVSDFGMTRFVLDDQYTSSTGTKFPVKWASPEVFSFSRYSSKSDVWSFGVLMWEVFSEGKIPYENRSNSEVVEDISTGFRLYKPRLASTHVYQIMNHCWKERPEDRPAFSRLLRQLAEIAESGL

For CC#CC(=O)N1CCC[C@H]1c1nc(-c2ccc(C(=O)Nc3ccccn3)cc2)c2c(N)nccn12 [compound of Formula (II)], the “tumor growth compared with CAR T administered with vehicle alone” value ([1]; with CAR T, drinking water 25 mg/kg/day) is listed as “significantly (P<0.001) decreased tumor growth”, the “median survival compared to suboptimal anti-CD19 CAR T cell dose+vehicle” value ([1]; with CAR-T cells, drinking water 25 mg/kg/day from day 4, p<0.001) is listed as “increased median survival” and the IC50 (RLK/TXK) is listed as ~368 nM. The “CAR T cytokine production (IFNγ, IL-2, TNFα) following stimulation with K562.CD19 cells” value (anti-CD19 CAR T cells [2]; overall, three donors, culture supernatants, ibrutinib 0.5-500 nM, Formula (II) 50-5000 nM) was “did not inhibit CAR T cytokine production”, the cytokine production (anti-CD19 CAR T cells [2]; some donors, compound of Formula (II)) was “modestly increased cytokine production in some donors” and the “expansion as measured by population doublings following multiple rounds of restimulation” value (anti-CD19 CAR-T cells; by day 18, CAR+ T cells from two of the three donors, each concentration assessed) was “observed to be enhanced”. The “cell counts after five rounds of stimulation (day 18)” value (anti-CD19 CAR-T cells; donor 3, highest concentration tested) was “Non-significant, increased cell counts”, the Cmax [3] was 1800 nM and the “percentage of TH1 cells” value (anti-CD19 CAR T cells [4]) was “no significant effects were observed”. For the same compound, the “lower affinity for ITK compared with ibrutinib” value (Itk) was > 200 times.
